Data: patent US20220340665A1, “INHIBITOR AGAINST EXPRESSION OF IMMUNE CHECKPOINT MOLECULE” (RENASCIENCE INC., priority 2019, published 2022)
“Also recorded” adds a separate entry of the source.

Tested on: mouse leukemia cell line (32Dp210)
Assay: PD-L1 mRNA expression by real-time PCR in 32Dp210 cells (Experimental Example 4)
Assay type: cell-based
Conditions: inhibitor 50 μM with rPAI-1 40 nM or 100 nM, overnight, listed as PAI-1 inhibitor
Method: The culture supernatant of the cells overexpressing PAI-1 (32D PAI-1 OE) prepared in Experimental Example 1 (PAI-1 OE sup) was added to a mouse leukemia cell line (32Dp210). In addition, those obtained by adding the PAI-1 inhibitor to a concentration of 50 μM, together with rPAI-1 (40 nM or 100 nM), were also prepared. Then, culturing was performed on a 96-well plate at 37° C., 5% CO2, overnight. The cells were collected, RNA was extracted using ISOGEN2 (Nippon Gene Co., Ltd.), and 100 ng of RNA was subjected to a reverse transcription reaction using a PrimeScript RT-PCR kit (Takara Bio Inc.) to obtain cDNA. The PD-L1 gene expression level was monitored by real-time PCR using TaqMan Fast Advanced Master Mix (Thermo Fisher Scientific). PD-L1 (Mm00452054_m1, Thermo Fisher Scientific) was used as the primer. To standardize the RNA amount, the expression level of 18S rRNA (Hs99999901_s1, Thermo Fisher Scientific) was also measured simultaneously. The PD-L1 gene expression level was determined using a comparative Ct method, which was shown in the graph as a ratio relative to the control group.

Structure (SMILES): O=C(Nc1ccc(Cl)cc1C(=O)[O-])c1cccc(-c2cccc3cccnc23)c1.[Na+] [Example 68, 5-chloro-2-(((3-(quinolin-8-yl)phenyl)carbonyl)amino)sodium benzoate]
- increase in PD-L1 mRNA expression by rPAI-1: inhibited the induction of the expression; also recorded: suppressed
